# Experimental data from patent publication US9717714B2, “Spirocyclic CETP inhibitors” (Merck Sharp & Dohme Corp., priority 2012, dated 2017).
# Read-outs that look alike come from different tables or passages of the source.
# How the values were obtained:
# CETP = CETP (Homo sapiens (Human), UniProt P11597); test: Scintillation Proximity Assay (SPA) for CETP activity; type: biochemical; conditions: 15 nM CETP
# Description: Protocol: Scintillation Proximity Assay (SPA) for CETP Activity
# First, low density lipoprotein (LDL) (Meridian) was biotinylated by incubating LDL with biotin for 1 hour on ice, after which it was dialyzed to remove free biotin. Then compounds at varying concentrations were incubated with 15 nM CETP (reagent production group, In Vitro Pharmacology, MRL Rahway) and 50 ug/ml of the biotinylated LDL in 50 mM HEPES, 150 mM NaCl, pH 7.4, for 1 hour at 37° C. The reaction was started by adding ^3H-cholesterol ester high density lipoprotein (HDL) (American Radiochemicals Corp) at a concentration of ˜0.6 nM. The reaction proceeded for 2 hours at 37° C., after which time it was quenched by the addition of 12% acetic acid. PVT streptavadin-coated scintillation proximity beads, which had been brought to room temperature, were then added at a concentration of 4 mg/ml. The assay was then mixed and counted after one half hour in a Microbeta plate reader.
# [1] = patients on baseline statin therapy, compared with just a statin; cited from earlier work
# [2] = biological target: endogenous CETP from serum (Homo sapiens (Human), UniProt P11597); test: RTA assay in 95% human serum (CETP-catalyzed CE and TG transfer, endogenous CETP); type: biochemical
# Description: In Vitro Radioactive Assays of CETP-Catalyzed CE and TG Transfer (RTA Assay)
# Reagents and sources are: [3H] cholesteryl oleate (GE #TRK.886), [3H] Triolein (Perkin-Elmer NET-431), Butylated hydroxyl toluene (Aldrich, #D4740-4), DOPC (Sigma, #P6354), Sodium Bromide (Fisher scientific #S255-500), PEG 8000 (Fisher, #BP233-1), and human HDL (Intracel Corp #RP-036).
# Both assays measure the transfer of [3H] cholesteryl oleate or [3H] triolein from exogenous LDL to HDL.
# Radiolabeled donor particles are generated by first combining 100 μl of 200 μM butylated hydroxyl toluene in CHCl3, 216 μL of 21.57 mM DOPC in EtOH, and either 500 μCi [3H]-triolein (Perkin Elmer #NET-431) or 500 μCi [3H]-cholesteryl oleate (GE #TRK886) in a glass tube. Reagents are mixed, dried under nitrogen, and then resuspended in 2 mL of 50 mM Tris, 27 μM EDTA at pH 7.4. After a brief vortex, the solution is sonicated until clear and mixed with 20 mL of fresh human serum. The mixture is incubated overnight at 37° C. The [3H] labeled LDL substrate is separated at 1.063 g/ml density by sequential ultracentrifugal flotation in NaBr according to the method of Havel, Eder, et al., 1955, and Chapman, Goldstein, et al., 1981. Once isolated the particles are dialyzed 3× in CETP buffer (50 mM Tris, pH 7.4, 100 mM NaCl, 1 mM EDTA). Human HDL is purchased from Intracel and used as the acceptor particles.
# Transfer assays are performed in a 96-well v-bottom polypropylene plate. For the RTA using recombinant CETP (2% RTA), an assay cocktail is prepared with the final concentrations 128 μg/mL HDL, 20 nM rCETP, 2% human serum, and 1×CETP buffer. 1 μL of each test compound diluted in DMSO is added to 47 μL of assay cocktail per well and incubated at 37° C. for 1 hour. To initiate the transfer reaction, 2 μL radiolabeled LDL is added. After an additional 60 min of incubation at 37° C., the transfer action is terminated by precipitation of LDL with an equal volume of 20% W/V PEG 8000. The plates are centrifuged at 2000 rpm for 30 minutes at 4° C. A 40 μL aliquot of the HDL-containing supernatant is transferred to a Packard Optiplate™ with 200 μL of MicroScint™ 20. After mixing, plates are counted by liquid scintillation. Counts present in the supernatant for blanks (wells containing only HDL acceptor, CETP buffer and DMSO) are subtracted from those containing test compounds and used to correct for non-specific transfer.
# For the transfer assay using endogenous CETP from serum (95% RTA), the same procedure is used except that human serum is added such that a final concentration of serum of 95% of the total assay volume is achieved, yielding a concentration of approximately 15 nM endogenous CETP in the assay. This is then combined with HDL and CETP buffer and the reaction proceeds as above and is terminated as described.
# Comparison of the counts of samples with inhibitors to an uninhibited (DMSO only) positive control yield a percent inhibition. A plot of percent inhibition vs. log of inhibitor concentration, fit to a Sigmoidal 4 parameter equation is used to calculate IC50.
# Starting materials are commercially available or are made using known procedures or as shown below. The examples may be synthesized according to the general schemes provided below and through the synthetic intermediates that are described. […] When compounds of Formula I or Formula II are mentioned herein, such compounds include compounds defined generically by Formula I or II and also the specific examples disclosed herein.
# [3] = 95% human serum, read-out: RTA (95% HS)
# [4] = generally RTA assay in 95% human serum, read-out: IC50
# endogenous CETP from serum, sequence (P11597 18-493 limits assumed): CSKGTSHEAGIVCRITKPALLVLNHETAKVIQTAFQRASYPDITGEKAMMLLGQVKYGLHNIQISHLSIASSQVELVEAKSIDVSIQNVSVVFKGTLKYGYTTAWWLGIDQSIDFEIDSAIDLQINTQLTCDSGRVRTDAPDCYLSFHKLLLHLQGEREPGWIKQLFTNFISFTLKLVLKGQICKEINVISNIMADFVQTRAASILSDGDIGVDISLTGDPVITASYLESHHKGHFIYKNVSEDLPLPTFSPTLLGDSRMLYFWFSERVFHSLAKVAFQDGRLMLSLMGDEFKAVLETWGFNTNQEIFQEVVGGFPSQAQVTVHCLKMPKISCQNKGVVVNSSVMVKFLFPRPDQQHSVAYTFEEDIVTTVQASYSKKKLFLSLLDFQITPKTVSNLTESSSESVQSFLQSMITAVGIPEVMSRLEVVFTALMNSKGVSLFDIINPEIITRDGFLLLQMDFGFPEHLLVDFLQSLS
# CETP, sequence (P11597 18-493): as the sequence (P11597 18-493 limits assumed) above
Compound,"IC50 [2, 4]",further results
"COc1ccc(-c2ccc(C(=O)O)cc2C)cc1-c1cnc(N(C)C)nc1CN1C(=O)O[C@@H](c2cc(C(F)(F)F)cc(C(F)(F)F)c2)C12CC2 [Example 8, 3′-[4-({(7S)-7-[3,5-bis(trifluoromethyl)phenyl]-5-oxo-6-oxa-4-azaspiro[2.4]hept-4-yl}methyl)-2-(dimethylamino)pyrimidin-5-yl]-4′-methoxy-2-methylbiphenyl-4-carboxylic acid]",–,IC50 (CETP): 6300 nM
COc1cc(F)c(C(C)C)cc1-c1ccc(C(F)(F)F)cc1CN1C(=O)O[C@H](c2cc(C(F)(F)F)cc(C(F)(F)F)c2)[C@@H]1C [anacetrapib],–,decrease of LDL-C [1]: 40%; increase of HDL-C [1]: 138%
"COc1ccc([C@H]2C[C@H](C(=O)O)C2)cc1-c1ccc(C(F)(F)F)nc1CN1C(=O)O[C@H](c2cc(C(F)(F)F)cc(C(F)(F)F)c2)C12CC2 [Example 1, trans-3-{3-[2-({(7R)-7-[3,5-bis(trifluoromethyl)phenyl]-5-oxo-6-oxa-4-azaspiro[2.4]hept-4-yl}methyl)-6-(trifluoromethyl)pyridin-3-yl]-4-methoxyphenyl}cyclobutanecarboxylic acid]",–,"IC50 [2, 3]: 962 nM"
"COc1ccc(-c2ccc(C(=O)O)cc2C)cc1-c1cnc(N(C)C)nc1CN1C(=O)O[C@H](c2cc(C(F)(F)F)cc(C(F)(F)F)c2)C12CC2 [Example 9, 3′-[4-({(7R)-7-[3,5-bis(trifluoromethyl)phenyl]-5-oxo-6-oxa-4-azaspiro[2.4]hept-4-yl}methyl)-2-(dimethylamino)pyrimidin-5-yl]-4′-methoxy-2-methylbiphenyl-4-carboxylic acid]",–,"IC50 [2, 3]: 55.5 nM"
"COC(=O)c1ccc(-c2ccc(OC)c(-c3cnc(SC)nc3CN3C(=O)O[C@H](c4cc(C(F)(F)F)cc(C(F)(F)F)c4)C34CC4)c2)c(C)c1 [Example 18, methyl 3′-[4-({(7R)-7-[3,5-bis(trifluoromethyl)phenyl]-5-oxo-6-oxa-4-azaspiro[2.4]hept-4-yl}methyl)-2-(methylsulfanyl)pyrimidin-5-yl]-4′-methoxy-2-methylbiphenyl-4-carboxylate]",596 nM,–
"COc1ccc(-c2ccc(C(=O)O)cc2C)cc1-c1cnc(N2CC(F)C2)nc1CN1C(=O)O[C@H](c2cc(C(F)(F)F)cc(C(F)(F)F)c2)C12CC2 [Example 15, 3′-[4-({(7R)-7-[3,5-bis(trifluoromethyl)phenyl]-5-oxo-6-oxa-4-azaspiro[2.4]hept-4-yl}methyl)-2-(3-fluoroazetidin-1-yl)pyrimidin-5-yl]-4′-methoxy-2-methylbiphenyl-4-carboxylic acid]",104 nM,–
"COc1ncc(-c2ccc(C(=O)O)cc2C)cc1-c1ccc(C(F)(F)F)nc1CN1C(=O)O[C@H](c2cc(C(F)(F)F)cc(C(F)(F)F)c2)C12CC2 [Example 4, 4-[2′-({(7R)-7-[3,5-bis(trifluoromethyl)phenyl]-5-oxo-6-oxa-4-azaspiro[2.4]hept-4-yl}methyl)-2-methoxy-6′-(trifluoromethyl)-3,3′-bipyridin-5-yl]-3-methylbenzoic acid]",173 nM,–
"COc1ccc(-c2ccc(C(=O)O)cc2C)cc1-c1cnc(N2CCOCC2)nc1CN1C(=O)O[C@H](c2cc(C(F)(F)F)cc(C(F)(F)F)c2)C12CCC2 [Example 13, 3′-[4-({(8R)-8-[3,5-bis(trifluoromethyl)phenyl]-6-oxo-7-oxa-5-azaspiro[3.4]oct-5-yl}methyl)-2-morpholin-4-ylpyrimidin-5-yl]-4′-methoxy-2-methylbiphenyl-4-carboxylic acid]",242 nM,–
"COc1ccc(-c2ccc(C(=O)O)cc2C)cc1-c1cnc(N(C)S(C)(=O)=O)nc1CN1C(=O)O[C@H](c2cc(C(F)(F)F)cc(C(F)(F)F)c2)C12CCC2 [Example 14, 3′-[4-({(8R)-8-[3,5-bis(trifluoromethyl)phenyl]-6-oxo-7-oxa-5-azaspiro[3.4]oct-5-yl}methyl)-2-[methyl (methylsulfonyl)amino]pyrimidin-5-yl}-4′-methoxy-2-methylbiphenyl-4-carboxylic acid]",561 nM,–
"COc1ccc(-c2ccc(C(=O)O)cc2C)cc1-c1cnc(N2CCOCC2)nc1CN1C(=O)O[C@H](c2cc(C(F)(F)F)cc(C(F)(F)F)c2)C12CC2 [Example 16, 3′-[4-({(7R)-7-[3,5-bis(trifluoromethyl)phenyl]-5-oxo-6-oxa-4-azaspiro[2.4]hept-4-yl}methyl)-2-morpholin-4-ylpyrimidin-5-yl]-4′-methoxy-2-methylbiphenyl-4-carboxylic acid]",272 nM,–
